Consider 16 compounds from paper PMC12256496, “An advancement in developmental and reproductive toxicity (DART) risk assessment: evaluation of a bioactivity and exposure-based NAM toolbox” (Frontiers in Toxicology, 2025).

SMILES strings stand for the structures. Where “and” joins values, the source holds several entries; their conditions need not be identical. Equal values may be shown once. Read-outs that look alike come from different tables or passages of the source.

The subject of series [1] is human developmental and reproductive toxicity. As to conditions: cited from earlier work.
A short description of series [2]: renal clearance, Fup*GFR (PBK parameter). As to conditions: method Fup*GFR.
Series [3] concerns developmental or reproductive toxicity in animal or human. As to conditions: cited from earlier work.
The nature of series [4]: Human in vivo PK data: concentration-dose ratio (CDR) and toxicokinetic variability factor (TKVF).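 Also: Literature-pooled human in vivo PK data, plasma, serum or cord blood concentrations per daily dose, weighted by study population size across non-pregnant, pregnant and fetal groups.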 Further details: 95% percentile (Conc-dose-ratio): unit not given here.
The conditions of series [5]: cited from earlier work; for MoS: existent consumer risk assessment for the cosmetic use scenario, ref SCCS / SCCP / SCCNFP; for ADI: ref FSCJ, EFSA, SCF, JMPR as named in the cell.
For series [6] the following is noted: Solubility pH 7, cited from earlier work.
Series [7] in a line: Bioactivity exposure ratio (BER): minimum platform PoD / estimated Cmax. Conditions: low-risk exposure scenario of the compound.
Series [8] in a line: skin absorption / systemic exposure dose for dermal exposure (PBK parameter). Format: in vitro ADME. From the text:
Where a SED (systemic exposure dose) was reported systemic exposure from a dermal administration was modelled as a slow intravenous infusion of the SED, which corrects the applied dose for the rate of skin absorption (%). Where no SED was available dermal exposure route was predicted by the dermal module in GastroPlus® administration.

Series [9] deals with rats. Conditions: two developmental toxicity studies in the rat; ref Supplementary Data Sheet 1; cited from earlier work.
Where [10] appears, read: evidence of developmental or reproductive toxicity in animal or human, irrespective of exposure/dose, ref Supplementary Data Sheet 1.
Setting [11] is: Non-Pregnant population (reference).
[12] abbreviates: Non-Pregnant population, TKVF95 = p95 / weighted mean concentration-dose ratio.
[13] abbreviates: Non-Pregnant, combined (oral+IV).
Setting [14] is: Pregnant population (reference).
[15] abbreviates: Pregnant population, TKVF95 = p95 / weighted mean concentration-dose ratio.
Where [16] appears, read: Foetus, oral, combined (tretinoin, retinyl palmitate, dietary retinoids).
The mark [17] stands for this setting: Non-Pregnant, dermal, formulation radiolabelled tretinoin.
Where [18] appears, read: Non-Pregnant, oral, combined (tretinoin, retinyl palmitate, dietary retinoids).
Setting [19] is: Pregnant, oral, combined (tretinoin, retinyl palmitate, dietary retinoids).

On to `CCCCCCC(O)CO` (stereo not drawn) [1,2-Octanediol], for which the “Exposure risk (DART risk classification)” value in series [1] (Cosmetic, 5% in body lotion, dermal, ref Supplementary Data Sheet 1) is listed as “Low Risk”. The “Renal Clearance” value in series [2] worked out at 5.129 L/h. Also, the “DART Hazard Call” value in [3] (setting [10]) is listed as “Non Toxic”.

Take `COc1ccc(C(=O)c2ccccc2)c(O)c1` [2-Hydroxy-4-methoxybenzophenone]: in [4] (Non-Pregnant, dermal), the “95% percentile (Conc-dose-ratio)” value amounted to 0.000717, the “Mean Conc-dose -ratio” value is on record as 0.00025 uM/(mg/day] and the TKVF was 2.84. Also, the “Exposure risk (DART risk classification)” value in series [1] (Cosmetic, 6% in sunscreen, dermal, ref Supplementary Data Sheet 1) was “Low Risk”. Further, the MoS entry in [5] is recorded as “Used safely in cosmetic products. Existent consumer risk assessment from the SCCS. MoS 38”. The “DART Hazard Call” value in series [3] (setting [10]) is on record as “Non Toxic”.

On to `Cn1c(=O)c2c(ncn2C)n(C)c1=O` [Caffeine], for which the TKVF in series [4] (female, human, in vivo) is listed as 2.42; in series [4] (female, human, in vivo, po) it was 2.42; in [4] (human, in vivo, po), 2.84.

Broadly, the Aqueous Solubility is the dissolved amount per volume that the medium holds. Take `O=S(=O)(O)NC1CCCCC1` [Cyclamate]: the “Exposure risk (DART risk classification)” value in [1] (Dietary, 420 mg/daily, oral, ref Supplementary Data Sheet 1) was “Low Risk”. In addition, in series [5], the ADI result is “ADI set by SCF (7mg/kg/day)”. Further, the “Aqueous Solubility” value in [6] (median, ref [5],[8]) is on record as 84.5 mg/mL.

`O=P1(N(CCCl)CCCl)NCCCO1` (stereo not drawn) [Cyclophosphamide]: the “CDR fold difference to non-pregnant” value in series [4] (setting [11]) amounted to 1.00. In addition, the TKVF in series [4] (setting [12]) was 3.15. In series [4] (setting [13]), the “95% percentile (Conc-dose-ratio)” value is 0.09, the “Fold Difference to non-pregnant” value came to 1.00, the “Mean Conc-dose -ratio” value is recorded as 0.030 uM/(mg/day] and the TKVF amounted to 3.15. The “CDR fold difference to non-pregnant” value in series [4] (Pregnant population) amounted to 2.85. In [4] (Pregnant, IV), the “Fold Difference to non-pregnant” value stood at 2.85 and the “Mean Conc-dose -ratio” value is on record as 0.084 uM/(mg/day]. For the same compound, in [1] (Pharmaceutical, 60 mg/daily, oral, ref Supplementary Data Sheet 1), the “Exposure risk (DART risk classification)” value is recorded as “High Risk”. In addition, in series [3] (setting [10]), the “DART Hazard Call” value is “Toxic”.

For `CCN(CC)C(=O)c1cccc(C)c1` [DEET], in series [4] (in vivo), the “95% percentile (Conc-dose-ratio)” value is 0.0013, the “Mean Conc-dose -ratio” value was 0.00066 uM/(mg/day] and the TKVF amounted to 1.97. For the same compound, the “Exposure risk (DART risk classification)” value in [1] is listed as “Low Risk”. The “DART Hazard Call” value in series [3] was “Uncertain”.

`C[C@@H]1C[C@H]2[C@@H]3CCC4=CC(=O)C=C[C@]4(C)[C@@]3(F)[C@@H](O)C[C@]2(C)[C@@]1(O)C(=O)CO` [Dexamethasone]: in series [4] (female, human, in vivo), the “CDR fold difference to non-pregnant” value turned out to be 1.50 and the TKVF is recorded as 2.51. In series [4] (human, in vivo), the “CDR fold difference to non-pregnant” value was 1.00 and the TKVF stood at 1.99. Also, the “DART Hazard Call” value in [3] (setting [10]) is given as “Toxic”.

For the compound `CC/C(=C(/CC)c1ccc(O)cc1)c1ccc(O)cc1` [Diethylstilbestrol (DES), Diethylstilbestrol], the “Exposure risk (DART risk classification)” value in [1] (Pharmaceutical, 0.5 mg/daily, oral, ref Supplementary Data Sheet 1) was “High Risk”. For the same compound, the “DART Hazard Call” value in [3] (setting [10]) is recorded as “Toxic”.

In the case of `C[C@H]1O[C@@H](O[C@H]2[C@@H](O)C[C@H](O[C@H]3[C@@H](O)C[C@H](O[C@H]4CC[C@@]5(C)[C@H](CC[C@@H]6[C@@H]5C[C@@H](O)[C@]5(C)[C@@H](C7=CC(=O)OC7)CC[C@]65O)C4)O[C@@H]3C)O[C@@H]2C)C[C@H](O)[C@@H]1O` [Digoxin], the TKVF is 2.35 in series [4] (female, human, in vivo) and 2.35 in series [4] (female, human, in vivo, po). Moreover, the BER in series [7] is recorded as under 1.

In the case of `C[C@@H]1CCO[C@H]2Cn3cc(C(=O)NCc4ccc(F)cc4F)c(=O)c(O)c3C(=O)N12` [Dolutegravir], the “CDR fold difference to non-pregnant” value in [4] (Fetus population) is recorded as 0.46; in [4] (setting [11]), 1.00; in series [4] (Pregnant population) it was 0.70. For the same compound, the “CDR fold difference to pregnant” value in series [4] (Fetus population) is given as 0.65; in [4] (setting [14]) it was 1.00. Further, the TKVF in [4] (Fetus population, TKVF95 = p95 / weighted mean concentration-dose ratio) turned out to be 1.40; in series [4] (Foetus, oral), 1.40; in series [4] (setting [12]) it was 1.87; in series [4] (Non-Pregnant, oral) it was 1.87; in [4] (setting [15]), 2.64; in series [4] (Pregnant, oral) it was 2.64. For the same compound, the “95% percentile (Conc-dose-ratio)” value in series [4] (Foetus, oral) was found to be 0.11; in series [4] (Non-Pregnant, oral) it was 0.33; in [4] (Pregnant, oral) it was 0.33. Further, the “Fold Difference to non-pregnant” value in [4] (Foetus, oral) turned out to be 0.46; in [4] (Non-Pregnant, oral) it was 1.00; in [4] (Pregnant, oral), 0.70. For the same compound, the “Fold Difference to pregnant” value came to 0.65 in series [4] (Foetus, oral) and 1.00 in [4] (Pregnant, oral). Besides, the “Mean Conc-dose -ratio” value in series [4] (Foetus, oral) is 0.08 uM/(mg/day]; in series [4] (Non-Pregnant, oral) it was 0.18 uM/(mg/day]; in [4] (Pregnant, oral) it was 0.12 uM/(mg/day]. In addition, the “Exposure risk (DART risk classification)” value in series [1] (Pharmaceutical, 50 mg/daily, oral, ref Supplementary Data Sheet 1) was “High Risk”. In series [3] (setting [10]), the “DART Hazard Call” value was “Toxic”.

`O=CCCCC=O` [Glutaraldehyde]: in [8] (optimised based on [10]), the “Diffusivity Dermis” value stood at 1.00E-07 cm^2/s, the “Diffusivity Stratum Corneum” value is listed as 1.00E-09 cm^2/s, the “Diffusivity Viable Epidermis” value was found to be 5.00E-08 cm^2/s and the “Partition Coefficient Stratum Corneum/Water” value is reported as 2.30. Further, in series [8] (optimised based on [10]), the “Partition Coefficient Viable Epidermis/Water” value is listed as 3.00. Further, in [1] (Cosmetic, 0.1% in body lotion, dermal, ref Supplementary Data Sheet 1), the “Exposure risk (DART risk classification)” value was “Low Risk”. Besides, the “Renal Clearance” value in series [2] is 6.185 L/h. The “highest dose tested without evidence of developmental toxicity” value in [9] is 50 mg/kg/day and 68 mg/kg/day. The “Chronic Dietary RfD” value in series [5] (ref EPA) is on record as “Chronic Dietary RfD set by EPA (0.16 mg/kg/day)”. Further, in series [6] (ref [7]), the “Aqueous Solubility” value is 167.2 mg/mL. For the same compound, the “DART Hazard Call” value in series [3] (setting [10]) is “Non Toxic”.

As to `CC(C)(CO)C(O)C(=O)NCCCO` (stereo not drawn) [Panthenol], in [8] (optimised based on [12]), the “Diffusivity Stratum Corneum” value turned out to be 2.29E-13 cm^2/s and the “Partition Coefficient Stratum Corneum/Water” value amounted to 1.96. Further, the “Renal Clearance” value in series [2] was 6.348 L/h. For the same compound, in series [7], the BER is reported as under 1.

Consider `C[n+]1ccc(-c2cc[n+](C)cc2)cc1` [Paraquat], for which the “CDR fold difference to non-pregnant” value in series [4] (Fetus population) amounted to 0.06; in series [4] (setting [11]), 1.00; in [4] (Pregnant population), 0.05. For the same compound, the “CDR fold difference to pregnant” value in [4] (Fetus population) is on record as 1.15; in [4] (setting [14]), 1.00. The “Fold Difference to non-pregnant” value in series [4] (Foetus, oral) stood at 0.056; in [4] (Non-Pregnant, oral), 1.00; in series [4] (Pregnant, oral), 0.05. The “Fold Difference to pregnant” value was 1.15 in series [4] (Foetus, oral) and 1.00 in series [4] (Pregnant, oral). For the same compound, the “Mean Conc-dose -ratio” value in [4] (Foetus, oral) is on record as 0.000247 uM/(mg/day]; in [4] (Non-Pregnant, oral) it was 0.0044 uM/(mg/day]; in [4] (Pregnant, oral) it was 0.000214 uM/(mg/day]. In addition, the TKVF in series [4] (setting [12]) was 3.16; in series [4] (Non-Pregnant, oral), 3.16. In addition, the “95% percentile (Conc-dose-ratio)” value in series [4] (Non-Pregnant, oral) turned out to be 0.014. Further, the ADI result in series [5] is on record as “ADI set by FSCJ (0.0045 mg/kg/day)”. Further, the “DART Hazard Call” value in series [3] (setting [10]) was “Non Toxic”.

Consider `O=C(O)c1ccccc1O` [Salicylate], for which the TKVF in series [4] (setting [12]) is 1.96; in series [4] (Non-Pregnant, dermal, formulation Sodium salicylate), 1.52; in series [4] (Non-Pregnant, oral, formulation Acetyl salicylic acid), 1.96; in series [4] (Non-Pregnant, oral, formulation Sodium salicylate), 1.06; in series [4] (setting [15]) it was 2.34; in [4] (Pregnant, oral, formulation Acetyl salicylic acid), 2.34. In addition, the MoS result in series [5] is on record as “Used safely in cosmetic products. Existent consumer risk assessment from the SCCS. MoS >50”.

As for `Cn1c(=O)c2[nH]cnc2n(C)c1=O` [Theophylline], the TKVF in [4] (female, human, in vivo) is given as 1.73.

`CC1=C(/C=C/C(C)=C/C=C/C(C)=C/C(=O)O)C(C)(C)CCC1` [all-tr-Retinoic Acid]: in series [4] (setting [16]), the “95% percentile (Conc-dose-ratio)” value turned out to be 0.00556, the “Fold Difference to non-pregnant” value came out at 0.55, the “Fold Difference to pregnant” value was 0.71 and the “Mean Conc-dose -ratio” value was 0.005 uM/(mg/day]. Moreover, the TKVF in [4] (setting [16]) was found to be 1.06. In addition, in series [4] (setting [17]), the “95% percentile (Conc-dose-ratio)” value is 0.00249, the “Mean Conc-dose -ratio” value is 0.0015 uM/(mg/day] and the TKVF came out at 1.66. Moreover, in series [4] (setting [18]), the “95% percentile (Conc-dose-ratio)” value was 0.02, the “Fold Difference to non-pregnant” value is 1.00, the “Mean Conc-dose -ratio” value is 0.010 uM/(mg/day] and the TKVF worked out at 2.14. In series [4] (setting [19]), the “95% percentile (Conc-dose-ratio)” value is 0.0108, the “Fold Difference to non-pregnant” value came out at 0.77, the “Fold Difference to pregnant” value was 1.00 and the “Mean Conc-dose -ratio” value is 0.007 uM/(mg/day]. Further, the TKVF in [4] (setting [19]) is recorded as 1.47.
